{"source": "patent US10092574B2", "about": "“Inhibitors of polynucleotide repeat-associated RNA foci and uses thereof” (VALORISATION-RECHERCHE, LIMITED PARTNERSHIP, priority 2013, dated 2018)", "key": {"[1]": {"system": "CUG-repeat RNA foci (mutant DMPK mRNA)", "test": "FISH detection and quantification of CUG-repeat RNA foci in DM1 patient myoblasts", "type": "cell-based, human", "details": "DM1 myoblasts ~1250 CTG, 7 days, 15 μM compound 15 or 5 μM compound 32, vs DMSO (FIG. 4)", "procedure": "Human myoblasts were obtained from the Myosix institute associated with the Association Frangaise contre les Myopathies (AFM). Five primary myoblast lines were obtained as controls, and one line from a DM1 patient with a 3.8 Kb CTG triplet amplification corresponding to approximately 1250 CTG repeats. The human myoblasts are cultivated in HAM-F10 media (SIGMA N6635) with 15% FBS, 1% chick embryo extract, and 390 ng/ml of dexamethasone. One day before adding compounds, 2×10^5 cells were plated in 100 mm plates (for CUGBP1 western blot or RT-PCR alternative splicing assay) or 2×10^4 cells/well are seeded in 12-well plates containing 12 mm round glass coverslips (for FISH to detect RNA foci). […]\nFor fluorescent in situ hybridization (FISH), cells grown on glass coverslips were fixed in PBS containing 4% paraformaldehyde, dehydrated for 2 hours in 70% ethanol, and incubated overnight with 10 ng of probe in 2×SSC 40% formamide at 37° C. […] To quantify the CUG repeat RNA aggregates, the 3D images of the foci were first processed by maximum intensity projection with the MetaMorph™ software (Molecular Devices Inc.), resulting in a 2D image containing all the foci in each cell. […] For each treatment condition, 60 to 80 cells were analyzed and all the data points were presented, with the median value indicated. […]"}, "luciferase-CUG200 mRNA": {"system": "luciferase-CUG200 mRNA", "test": "Dose-response of nuclear export/translation of luciferase-CUG200 reporter mRNA in C2C12 myoblast cell line", "type": "cell-based, murine", "details": "for EC50: Mus musculus, read-out: EC50 (luciferase from luciferase-CUG200 mRNA)", "procedure": "C2C12 murine myoblast cells and Phoenix retrovirus packaging cells were cultivated in DMEM supplemented with 10% FBS. Phoenix cells were transfected with the desired retroviral vector by the Calcium-Phosphate method and, 48 hours after transfection, retrovirus-containing supernatant was supplemented with polybrene and deposited on cells to infect. C2C12 Tet-Off cell lines were generated by infecting cells with the retrovirus pTet-Off IN (Clontech) and selecting for Doxycycline (Dox)-regulated clones. Cell lines expressing the LacZ-5CUG, LacZ-145CUG, LUC-5CUG or LUC-200CUG transcripts were generated by infecting C2C12 Tet-Off cells with the desired reporter construct in the pRevTRE plasmid (Clontech) and selecting for stable clones with inducible expression. The 3′UTR of human DMPK containing 5 CTG repeats or 200 CTG repeats was cloned downstream of the luciferase or beta-galactosidase open reading frames. The C2C12 cell line(s) are cultivated in media containing 1 ng/ml Dox to repress transcription of the reporter constructs.\nThe two compounds identified by the screening assay described above, which were named compound 15 and 32, have the structure depicted in FIG. 3. Compound 15 has a para-sulfonamide structure, and compound 32 is a benzyl methylthiophene amide. […] The dose-response effect of candidate drugs 15 and 32 on the nuclear export of luciferase-CUG200 mRNA was assessed in the C2C12 myoblast cell line. The amount of CUG repeat RNA that get exported and properly translated into luciferase in response to treatment with varying concentrations of target drugs was measured in order to determine the dose-response curves."}}}
{"smiles": "CCCN(CCC)S(=O)(=O)c1ccc(NS(=O)(=O)Cc2ccccc2)cc1", "note": "[Compound 15]", "values": [{"measurement": "decrease in RNA foci formation (surface occupied by RNA foci in the nucleus)", "setting": "[1]", "result": "more than two-fold decrease"}, {"measurement": "concentration at which plateau / peak of maximal effect was reached", "setting": "luciferase-CUG200 mRNA", "result": 15, "unit": "µM"}, {"measurement": "EC50", "setting": "luciferase-CUG200 mRNA", "result": 6.8, "unit": "µM"}]}
{"smiles": "CCCc1c(C(=O)N(Cc2ccccc2)Cc2cccs2)cnn1-c1ccccc1", "note": "[Compound 32]", "values": [{"measurement": "decrease in RNA foci formation (surface occupied by RNA foci in the nucleus)", "setting": "[1]", "result": "more than two-fold decrease"}, {"measurement": "concentration at which plateau / peak of maximal effect was reached", "setting": "luciferase-CUG200 mRNA", "result": 5, "unit": "µM"}, {"measurement": "EC50", "setting": "luciferase-CUG200 mRNA", "result": 2.5, "unit": "µM"}]}
